Source: patent US20230398205A1, “SARS-COV-2 IMMU[…] CONSTRUCTS AND USES THEREOF” (TScan Therapeutics, Inc., priority 2020, published 2023)
Read-outs that look alike come from different tables or passages of the source. Where no end group is shown, it is not given here.

How the values were obtained:
Type in all cases: cell-based, human
[1] = system: memory CD8 T cells from convalescent COVID-19 patients
[2] = system: memory CD8+ T cells specific for A*02:01 epitopes; settings: Allele A02
[3] = system: naïve CD8 T cells isolated from healthy donors; settings: 10 days of expansion; tetramer staining; FIG. 14, FIG. 15

Row | Sequence | % of Pts (Screen M+ 2SD) ([1]; Allele A01) [%] | % of Pts (Tetramer) [2] [%] | also measured
1 | DTDFVNEFY [DTD] | 40 | – | –
2 | LLLDRLNQL [LLL] | – | 22.2 | % of Pts (Screen M+ 2SD) ([1]; Allele A02): 33.3%
3 | LLYDANYFL [LLY] | – | 55.6 | –
4 | NTCDGTTFTY [NTC] | 60 | – | –
5 | YLQPRTFLL [YLQ] | – | – | expansion of peptide-specific T cells from the naïve T cell population [3]: induces an expansion of peptide-specific T cells
